{
  "source": "patent US12350266B2",
  "about": "“FGFR2 inhibitors for the treatment of cholangiocarcinoma” (Janssen Pharmaceutica NV, priority 2017, dated 2025)",
  "key": {"[1]": {"conditions": "compared with published Part 1 results (Tabernero 2015)"}, "[2]": {"system": "advanced cholangiocarcinoma with FGFR alterations", "conditions": "11 subjects dosed with 8 mg qd; snapshot 20 Mar. 2018", "procedure": "(§1) LUC2001 is an open-label, multicenter, phase 2a study including advanced cholangiocarcinoma subjects with FGFR alterations, based on FoundationOne testing, who failed at least 1 prior systemic treatment. The primary endpoint is objective response rate (ORR; by Response Evaluation Criteria in Solid Tumors (RECIST) version 1.1). The secondary endpoints are disease control rate (DCR), safety and pharmacokinetics. Disease is evaluated every 8 weeks until disease progression (PD). […] The dose of the drug may be modified, delayed, or terminated based on guidelines in the protocol."}, "[3]": {"system": "patients with FGFR-aberrant cholangiocarcinoma", "assay": "Clinical trial NCT01703481: safety", "assay_type": "in vivo, human", "conditions": "compared with published Part 1 results (Tabernero 2015)", "protocol": "Eleven patients with FGFR-aberrant cholangiocarcinoma were treated at 9 mg QD (n=1, Part 3) or 10 mg intermittent (n=10, Part 4)."}, "[4]": {"system": "FGFR-aberrant cholangiocarcinoma", "source_text": "Sparse samples were collected in Parts 3 and 4."}, "[5]": {"system": "advanced cholangiocarcinoma patients", "assay": "LUC2001 (NCT02699606) phase 2a study: safety (adverse events)", "procedure": "as §1"}, "[6]": {"conditions": "8 mg qd, most common AEs (>30%)"}},
  "data": [
    {"smiles": "COc1cc(OC)cc(N(CCNC(C)C)c2ccc3ncc(-c4cnn(C)c4)nc3c2)c1", "note": "[erdafitinib, N-(3,5-dimethoxy-phenyl)-N′-(1-methylethyl)-N-[3-(1-methyl-1H-pyrazol-4-yl)quinoxalin-6-yl]ethane-1,2-diamine]", "values": [
      {"measurement": "PK data", "setting": "[1]", "result": "consistent with those from the previously published results from Part 1 of this study"},
      {"measurement": "PD (disease progression), number of subjects", "setting": "[2]", "result": 2},
      {"measurement": "Safety data", "setting": "[3]", "result": "consistent with those from the previously published results from Part 1 of this study"},
      {"measurement": "partial responses, fusion FGFR2-BICC1", "setting": "[4]; number of patients (n)", "result": 1},
      {"measurement": "partial responses, fusion FGFR2-CCAR1", "setting": "[4]; number of patients (n)", "result": 1},
      {"measurement": "partial responses, patients with FGFR translocations", "setting": "[4]; number of patients among the 3 partial responses", "result": 2},
      {"measurement": "AE diarrhea (subjects/dosed)", "setting": "[5]; [6]", "result": "4/11"},
      {"measurement": "AE dry mouth (subjects/dosed)", "setting": "[5]; [6]", "result": "7/11"},
      {"measurement": "AE hyperphosphatemia (subjects/dosed)", "setting": "[5]; [6]", "result": "8/11"},
      {"measurement": "AE nail disorder (subjects/dosed)", "setting": "[5]; [6]", "result": "4/11"},
      {"measurement": "AE palmar-plantar erythrodysaesthesia syndrome (subjects/dosed)", "setting": "[5]; [6]", "result": "4/11"},
      {"measurement": "AE stomatitis (subjects/dosed)", "setting": "[5]; [6]", "result": "7/11"},
      {"measurement": "AE leading to treatment discontinuation or death", "setting": "[5]; 11 subjects, 8 mg qd", "result": "no AE led to treatment discontinuation or death"},
      {"measurement": "subjects who experienced AEs", "setting": "[5]; 11 subjects, 8 mg qd", "result": "All subjects experienced AEs"},
      {"measurement": "subjects with AEs leading to drug interruption", "setting": "[5]; 11 subjects, 8 mg qd", "result": "all had AEs leading to drug interruption"},
      {"measurement": "safety profile (conclusion)", "setting": "[5]; patients with FGFR-aberrant advanced cholangiocarcinoma", "result": "tolerable safety profile"}
    ]}
  ]
}
